Legend:
[1] = patients, cited from earlier work
rat sEH = test: IC50 determination for sEH inhibitors; format: biochemical; settings: potency ratio on rat sEH, Table S1
[2] = target: T1, soluble epoxide hydrolase (sEH) (Rattus norvegicus, UniProt P80299); test: In vivo displacement assay in rat; settings: TCU 0.1 mg/kg, second compound 3 mg/kg, oral gavage
T1 sequence (P80299 1-554): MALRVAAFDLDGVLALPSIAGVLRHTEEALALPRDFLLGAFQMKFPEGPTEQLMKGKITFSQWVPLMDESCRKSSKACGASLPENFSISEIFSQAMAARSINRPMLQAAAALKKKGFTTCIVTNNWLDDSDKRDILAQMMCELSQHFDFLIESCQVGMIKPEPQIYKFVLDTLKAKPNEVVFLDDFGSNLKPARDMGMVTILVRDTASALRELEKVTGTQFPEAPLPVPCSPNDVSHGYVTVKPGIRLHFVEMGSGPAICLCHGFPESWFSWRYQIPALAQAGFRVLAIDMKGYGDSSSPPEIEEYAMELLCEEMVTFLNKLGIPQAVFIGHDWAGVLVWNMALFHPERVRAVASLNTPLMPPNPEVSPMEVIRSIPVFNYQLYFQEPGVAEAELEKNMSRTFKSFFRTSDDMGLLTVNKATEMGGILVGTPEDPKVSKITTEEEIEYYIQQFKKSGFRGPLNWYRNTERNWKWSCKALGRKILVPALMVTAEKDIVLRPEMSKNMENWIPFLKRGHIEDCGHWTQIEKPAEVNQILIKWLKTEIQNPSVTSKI

displacement of sEH-bound TCU by second compound at 168 h [2] | SMILES | time until which effect is maintained ([1]; beyond 24 h) | time within which majority is cleared from dosing [1] | fold less potent than TIPU (rat sEH)
– | COC(=O)[C@H](c1ccccc1Cl)N1CCc2sccc2C1 [clopidogrel] | 7 days | ≤ 6 h | –
could not be displaced | CC[C@H](C)C(=O)N1CCC(NC(=O)Nc2c(F)cccc2F)CC1 [DFPU, (S)-1-(2,6-difluorophenyl)-3-(1-(2-methylbutanoyl)piperidin-4-yl)urea] | – | – | ~16 666 fold
